{"source": "the supplement of paper PMC10307832", "test_in_all_cases": "relative viability (nuclei count vs DMSO), 5 days (fraction); higher = more cells survive", "key": {"[1]": {"compound": "CCc1cnn2c(NCc3ccc[n+]([O-])c3)cc(N3CCCC[C@H]3CCO)nc12 [Dinaciclib]", "in_short": "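Lung cancer cell lines received five library-drug doses (not always all listed) spaced by √10, pinned on vehicle-anchored 1536-well plates after an overnight stay at 37 °C. Five days later, with no medium change, nuclei were Hoechst-stained, imaged at 4× and counted with MetaXpress. Viability is treated-well nuclei relative to vehicle-well nuclei, as a median across plates. Passing plates had control CV below 25% and at least one doubling.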"}, "[2]": {"compound": "CCc1cnn2c(NCc3ccc[n+]([O-])c3)cc(N3CCCC[C@H]3CCO)nc12 [Dinaciclib] + O=C(c1cc(Cc2n[nH]c(=O)c3ccccc23)ccc1F)N1CCN(C(=O)C2CC2)CC1 [Olaparib] (partner 8 µM)", "in_short": "(§1)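 Lung cancer cell lines in 1536-well plates were dosed by pin tool the day after seeding, either with one drug alone or with a fixed anchor-drug dose plus five library-drug doses (not always all listed) in √10 steps. After 5 days, cells were fixed and their nuclei stained in one step (final 0.05% Triton X-100, 1% formaldehyde, 1 ug/ml Hoechst), then counted on 4× images. Relative viability is the nuclei count in treated wells divided by that in vehicle wells. Values are medians of duplicate plates.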"}, "[3]": {"compound": "CCc1cnn2c(NCc3ccc[n+]([O-])c3)cc(N3CCCC[C@H]3CCO)nc12 [Dinaciclib] + CS(=O)(=O)N1CCN(Cc2cc3nc(-c4cccc5[nH]ncc45)nc(N4CCOCC4)c3s2)CC1 [Pictilisib] (partner 1 µM)", "in_short": "as §1"}, "[4]": {"compound": "CCc1cnn2c(NCc3ccc[n+]([O-])c3)cc(N3CCCC[C@H]3CCO)nc12 [Dinaciclib] + COc1cc2c(Oc3ccc(NC(=O)C4(C(=O)Nc5ccc(F)cc5)CC4)cc3F)ccnc2cc1OCCCN1CCOCC1 [Foretinib] (partner 0.25 µM)", "in_short": "as §1"}, "[5]": {"compound": "CCc1cnn2c(NCc3ccc[n+]([O-])c3)cc(N3CCCC[C@H]3CCO)nc12 [Dinaciclib] + CC1(C)CCC(c2ccc(Cl)cc2)=C(CN2CCN(c3ccc(C(=O)NS(=O)(=O)c4ccc(N[C@H](CCN5CCOCC5)CSc5ccccc5)c(S(=O)(=O)C(F)(F)F)c4)cc3)CC2)C1 [Navitoclax] (partner 0.5 µM)", "in_short": "as §1"}, "[6]": {"compound": "CCc1cnn2c(NCc3ccc[n+]([O-])c3)cc(N3CCCC[C@H]3CCO)nc12 [Dinaciclib] + CS(=O)(=O)CCNCc1ccc(-c2ccc3ncnc(Nc4ccc(OCc5cccc(F)c5)c(Cl)c4)c3c2)o1 [Lapatinib] (partner 2 µM)", "in_short": "as §1"}, "[7]": {"compound": "CCc1cnn2c(NCc3ccc[n+]([O-])c3)cc(N3CCCC[C@H]3CCO)nc12 [Dinaciclib] + Cc1nc(NC(=O)N2CCC[C@H]2C(N)=O)sc1-c1ccnc(C(C)(C)C(F)(F)F)c1 [Alpelisib] (partner 2 µM)", "in_short": "as §1"}, "[8]": {"compound": "CCc1cnn2c(NCc3ccc[n+]([O-])c3)cc(N3CCCC[C@H]3CCO)nc12 [Dinaciclib] + C[C@]1(O)C[C@@H](c2nc(-c3ccc4ccc(-c5ccccc5)nc4c3)c3c(N)nccn32)C1 [Linsitinib] (partner 1 µM)", "in_short": "as §1"}, "[9]": {"compound": "CCc1cnn2c(NCc3ccc[n+]([O-])c3)cc(N3CCCC[C@H]3CCO)nc12 [Dinaciclib] + CC(C)C[C@H](NC(=O)[C@H](Cc1ccccc1)NC(=O)c1cnccn1)B(O)O [Bortezomib] (partner 0.002 µM)", "in_short": "as §1"}, "[10]": {"compound": "CCc1cnn2c(NCc3ccc[n+]([O-])c3)cc(N3CCCC[C@H]3CCO)nc12 [Dinaciclib] + C[C@@H](Oc1cc(-c2cnn(C3CCNCC3)c2)cnc1N)c1c(Cl)ccc(F)c1Cl [Crizotinib] (partner 1 µM)", "in_short": "as §1"}}, "data": [{"cell line": "Calu-6", "values": [{"measurement": "relative viability", "setting": "[1]; 0.009487 µM", "result": 0.969}, {"measurement": "relative viability", "setting": "[1]; 0.03 µM", "result": 0.145}, {"measurement": "relative viability", "setting": "[1]; 0.09487 µM", "result": 0.117}, {"measurement": "relative viability", "setting": "[1]; 0.3 µM", "result": 0.131}, {"measurement": "relative viability", "setting": "[2]; first compound 0.009487 µM", "result": 0.527}, {"measurement": "relative viability", "setting": "[2]; first compound 0.03 µM", "result": 0.111}, {"measurement": "relative viability", "setting": "[2]; first compound 0.09487 µM", "result": 0.1}, {"measurement": "relative viability", "setting": "[2]; first compound 0.3 µM", "result": 0.109}, {"measurement": "relative viability", "setting": "[3]; first compound 0.009487 µM", "result": 0.523}, {"measurement": "relative viability", "setting": "[3]; first compound 0.03 µM", "result": 0.113}, {"measurement": "relative viability", "setting": "[3]; first compound 0.09487 µM", "result": 0.116}, {"measurement": "relative viability", "setting": "[3]; first compound 0.3 µM", "result": 0.114}, {"measurement": "relative viability", "setting": "[4]; first compound 0.009487 µM", "result": 0.757}, {"measurement": "relative viability", "setting": "[4]; first compound 0.03 µM", "result": 0.0769}, {"measurement": "relative viability", "setting": "[4]; first compound 0.09487 µM", "result": 0.0773}, {"measurement": "relative viability", "setting": "[4]; first compound 0.3 µM", "result": 0.0929}, {"measurement": "relative viability", "setting": "[5]; first compound 0.009487 µM", "result": 0.524}, {"measurement": "relative viability", "setting": "[5]; first compound 0.03 µM", "result": 0.0805}, {"measurement": "relative viability", "setting": "[5]; first compound 0.09487 µM", "result": 0.0782}, {"measurement": "relative viability", "setting": "[5]; first compound 0.3 µM", "result": 0.0765}, {"measurement": "relative viability", "setting": "[6]; first compound 0.009487 µM", "result": 0.914}, {"measurement": "relative viability", "setting": "[6]; first compound 0.03 µM", "result": 0.112}, {"measurement": "relative viability", "setting": "[6]; first compound 0.09487 µM", "result": 0.13}, {"measurement": "relative viability", "setting": "[6]; first compound 0.3 µM", "result": 0.134}, {"measurement": "relative viability", "setting": "[7]; first compound 0.009487 µM", "result": 0.498}, {"measurement": "relative viability", "setting": "[7]; first compound 0.03 µM", "result": 0.133}, {"measurement": "relative viability", "setting": "[7]; first compound 0.09487 µM", "result": 0.118}, {"measurement": "relative viability", "setting": "[7]; first compound 0.3 µM", "result": 0.128}, {"measurement": "relative viability", "setting": "[8]; first compound 0.009487 µM", "result": 1.02}, {"measurement": "relative viability", "setting": "[8]; first compound 0.03 µM", "result": 0.0954}, {"measurement": "relative viability", "setting": "[8]; first compound 0.09487 µM", "result": 0.0924}, {"measurement": "relative viability", "setting": "[8]; first compound 0.3 µM", "result": 0.103}, {"measurement": "relative viability", "setting": "[9]; first compound 0.009487 µM", "result": 0.54}, {"measurement": "relative viability", "setting": "[9]; first compound 0.03 µM", "result": 0.128}, {"measurement": "relative viability", "setting": "[9]; first compound 0.09487 µM", "result": 0.133}, {"measurement": "relative viability", "setting": "[9]; first compound 0.3 µM", "result": 0.123}, {"measurement": "relative viability", "setting": "[10]; first compound 0.009487 µM", "result": 0.619}, {"measurement": "relative viability", "setting": "[10]; first compound 0.03 µM", "result": 0.208}, {"measurement": "relative viability", "setting": "[10]; first compound 0.09487 µM", "result": 0.0928}, {"measurement": "relative viability", "setting": "[10]; first compound 0.3 µM", "result": 0.126}]}, {"cell line": "EBC-1", "values": [{"measurement": "relative viability", "setting": "[1]; 0.009487 µM", "result": 0.875}, {"measurement": "relative viability", "setting": "[1]; 0.03 µM", "result": 0.149}, {"measurement": "relative viability", "setting": "[1]; 0.09487 µM", "result": 0.108}, {"measurement": "relative viability", "setting": "[1]; 0.3 µM", "result": 0.141}, {"measurement": "relative viability", "setting": "[2]; first compound 0.009487 µM", "result": 0.737}, {"measurement": "relative viability", "setting": "[2]; first compound 0.03 µM", "result": 0.132}, {"measurement": "relative viability", "setting": "[2]; first compound 0.09487 µM", "result": 0.126}, {"measurement": "relative viability", "setting": "[2]; first compound 0.3 µM", "result": 0.106}, {"measurement": "relative viability", "setting": "[3]; first compound 0.009487 µM", "result": 0.283}, {"measurement": "relative viability", "setting": "[3]; first compound 0.03 µM", "result": 0.117}, {"measurement": "relative viability", "setting": "[3]; first compound 0.09487 µM", "result": 0.109}, {"measurement": "relative viability", "setting": "[3]; first compound 0.3 µM", "result": 0.142}, {"measurement": "relative viability", "setting": "[4]; first compound 0.009487 µM", "result": 0.0927}, {"measurement": "relative viability", "setting": "[4]; first compound 0.03 µM", "result": 0.0992}, {"measurement": "relative viability", "setting": "[4]; first compound 0.09487 µM", "result": 0.106}, {"measurement": "relative viability", "setting": "[4]; first compound 0.3 µM", "result": 0.106}, {"measurement": "relative viability", "setting": "[5]; first compound 0.009487 µM", "result": 0.307}, {"measurement": "relative viability", "setting": "[5]; first compound 0.03 µM", "result": 0.138}, {"measurement": "relative viability", "setting": "[5]; first compound 0.09487 µM", "result": 0.136}, {"measurement": "relative viability", "setting": "[5]; first compound 0.3 µM", "result": 0.163}, {"measurement": "relative viability", "setting": "[6]; first compound 0.009487 µM", "result": 0.21}, {"measurement": "relative viability", "setting": "[6]; first compound 0.03 µM", "result": 0.16}, {"measurement": "relative viability", "setting": "[6]; first compound 0.09487 µM", "result": 0.168}, {"measurement": "relative viability", "setting": "[6]; first compound 0.3 µM", "result": 0.157}, {"measurement": "relative viability", "setting": "[7]; first compound 0.009487 µM", "result": 0.501}, {"measurement": "relative viability", "setting": "[7]; first compound 0.03 µM", "result": 0.138}, {"measurement": "relative viability", "setting": "[7]; first compound 0.09487 µM", "result": 0.123}, {"measurement": "relative viability", "setting": "[7]; first compound 0.3 µM", "result": 0.141}, {"measurement": "relative viability", "setting": "[8]; first compound 0.009487 µM", "result": 0.977}, {"measurement": "relative viability", "setting": "[8]; first compound 0.03 µM", "result": 0.228}, {"measurement": "relative viability", "setting": "[8]; first compound 0.09487 µM", "result": 0.101}, {"measurement": "relative viability", "setting": "[8]; first compound 0.3 µM", "result": 0.127}, {"measurement": "relative viability", "setting": "[9]; first compound 0.009487 µM", "result": 0.452}, {"measurement": "relative viability", "setting": "[9]; first compound 0.03 µM", "result": 0.133}, {"measurement": "relative viability", "setting": "[9]; first compound 0.09487 µM", "result": 0.152}, {"measurement": "relative viability", "setting": "[9]; first compound 0.3 µM", "result": 0.146}, {"measurement": "relative viability", "setting": "[10]; first compound 0.009487 µM", "result": 0.198}, {"measurement": "relative viability", "setting": "[10]; first compound 0.03 µM", "result": 0.159}, {"measurement": "relative viability", "setting": "[10]; first compound 0.09487 µM", "result": 0.151}, {"measurement": "relative viability", "setting": "[10]; first compound 0.3 µM", "result": 0.136}]}]}
